Numbers after ± are expanded uncertainties.

The conditions of data set [1]: Crystal; DTA.
The nature of data set [2]: Molar enthalpy of transition or fusion. The following applies: Crystal; DSC.

With `CC(=O)Oc1ccc(C2CC(=O)c3c(OC(C)=O)cc(OC(C)=O)cc3O2)cc1` (configuration not stated) [4',5,7-triacetoxyflavanone], the Normal melting temperature in data set [1] is 73.80 ± 0.46 °C. In addition, the “Molar enthalpy of transition or fusion” value in data set [2] was determined as 4.97 ± 0.263 kcal/mol.

Source of the values: the NIST ThermoML archive (doi:10.1021/acs.jced.6b00929).
